Results published in ChEMBL document CHEMBL1133639, “Subtype-selective N-methyl-D-aspartate receptor antagonists: synthesis and biological evaluation of 1-(heteroarylalkynyl)-4-benzylpiperidines” (J Med Chem, 2000).

Tests used:
[1] = biological target: Glutamate receptor ionotropic, NMDA 1 (Homo sapiens, UniProt Q05586+Q14957); assay: Concentration required for 50% Inhibition of responses at cloned NR1A/2C NMDA expressed in Xenopus oocytes; format: cell-based, Oocyte
[2] = biological target: Glutamate receptor ionotropic, NMDA 1 (Homo sapiens, UniProt Q05586+Q12879); assay: Concentration required for 50% Inhibition of responses at cloned NR1A/2A NMDA expressed in Xenopus oocytes; format: cell-based, Oocyte
[3] = biological target: Glutamate receptor ionotropic, NMDA 1 (Homo sapiens, UniProt Q05586); assay: Concentration required for 50% Inhibition of responses at cloned NR1A/2AB NMDA expressed in Xenopus oocytes; format: cell-based, Oocyte
[4] = biological target: Glutamate receptor ionotropic, NMDA 2C (Rattus norvegicus, UniProt P35439+Q00961); assay: Concentration required for 50% Inhibition of responses at cloned NR1A/2C N-methyl-D-aspartate (NMDA) expressed in Xenopus oocytes; format: cell-based, Oocyte
Rattus norvegicus [5] = assay: Lowest oral dose that shows significant potentiation of total contraversive rotations over 3 hr caused by L-DOPA (10mg/kg, sc) in 6-hydroxydopamine-lesioned rats (n=8)administered perorally; format: functional; settings: read-out: MED
[6] = biological target: T1, Adrenergic receptor alpha-1 (Rattus norvegicus, UniProt P15823+P23944+P43140); assay: Displacement of [3H]prazosin at alpha-1 adrenergic receptor in rat brain cortices (n=1); format: tissue-based
T1 sequence (P15823 whole entry): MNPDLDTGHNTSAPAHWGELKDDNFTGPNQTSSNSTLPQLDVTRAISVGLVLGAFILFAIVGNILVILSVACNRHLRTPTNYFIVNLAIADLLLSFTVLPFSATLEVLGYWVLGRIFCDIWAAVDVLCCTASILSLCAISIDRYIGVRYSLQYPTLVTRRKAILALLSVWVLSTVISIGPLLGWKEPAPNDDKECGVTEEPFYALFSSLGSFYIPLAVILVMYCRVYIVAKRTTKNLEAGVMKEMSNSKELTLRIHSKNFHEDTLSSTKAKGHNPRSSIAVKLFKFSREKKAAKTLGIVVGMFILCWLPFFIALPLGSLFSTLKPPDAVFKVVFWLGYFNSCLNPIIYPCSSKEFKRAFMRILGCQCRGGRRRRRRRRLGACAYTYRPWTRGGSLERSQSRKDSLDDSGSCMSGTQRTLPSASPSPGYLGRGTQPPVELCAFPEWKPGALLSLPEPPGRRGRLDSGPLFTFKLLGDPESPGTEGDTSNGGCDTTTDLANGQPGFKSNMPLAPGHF
T1 sequence (P23944 whole entry): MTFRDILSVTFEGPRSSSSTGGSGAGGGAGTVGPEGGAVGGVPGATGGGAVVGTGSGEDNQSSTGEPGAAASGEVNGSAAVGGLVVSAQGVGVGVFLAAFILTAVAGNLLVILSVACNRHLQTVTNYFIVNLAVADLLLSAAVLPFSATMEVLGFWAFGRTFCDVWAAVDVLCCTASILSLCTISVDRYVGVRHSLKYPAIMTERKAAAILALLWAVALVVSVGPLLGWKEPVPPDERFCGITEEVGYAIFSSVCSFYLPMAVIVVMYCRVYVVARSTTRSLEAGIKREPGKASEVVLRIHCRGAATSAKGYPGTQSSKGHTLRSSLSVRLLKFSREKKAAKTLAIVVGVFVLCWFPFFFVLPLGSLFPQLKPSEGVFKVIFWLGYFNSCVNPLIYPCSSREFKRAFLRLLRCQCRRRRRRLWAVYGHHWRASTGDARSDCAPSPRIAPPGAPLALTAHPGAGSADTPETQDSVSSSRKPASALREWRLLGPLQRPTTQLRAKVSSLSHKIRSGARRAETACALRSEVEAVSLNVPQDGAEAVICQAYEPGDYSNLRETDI
T1 sequence (P43140 whole entry): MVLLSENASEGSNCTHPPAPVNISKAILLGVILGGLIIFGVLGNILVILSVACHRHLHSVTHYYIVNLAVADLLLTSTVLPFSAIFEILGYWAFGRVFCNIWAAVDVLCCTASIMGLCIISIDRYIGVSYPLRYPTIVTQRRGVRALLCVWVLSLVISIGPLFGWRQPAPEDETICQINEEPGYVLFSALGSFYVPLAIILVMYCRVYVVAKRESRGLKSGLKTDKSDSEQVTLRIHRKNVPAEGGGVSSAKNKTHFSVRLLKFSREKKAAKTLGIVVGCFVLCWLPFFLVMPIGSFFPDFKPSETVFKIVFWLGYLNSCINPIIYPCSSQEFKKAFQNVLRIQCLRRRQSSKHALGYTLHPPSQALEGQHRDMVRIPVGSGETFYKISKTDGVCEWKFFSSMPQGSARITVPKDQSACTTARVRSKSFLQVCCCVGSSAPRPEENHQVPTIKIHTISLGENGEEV

D(2) dopamine receptor = D(2) dopamine receptor (Rattus norvegicus, UniProt P61169); assay: Displacement of [3H]raclopride at Dopamine receptor D2 in brain striata (n=1); format: tissue-based
[7] = biological target: Glutamate NMDA receptor; Grin1/Grin2a (Rattus norvegicus, UniProt P35439+Q00959); assay: Concentration required for 50% Inhibition of responses at cloned NR1A/2A N-methyl-D-aspartate (NMDA) expressed in Xenopus oocytes; format: cell-based, Oocyte
Rattus norvegicus [8] = assay: Lowest oral dose that shows significant potentiation of total contraversive rotations over 3 hr caused by L-DOPA (10mg/kg, sc) in 6-hydroxydopamine-lesioned rats (n=8) administered perorally; format: functional; settings: read-out: MED
[9] = biological target: T1, Adrenergic receptor alpha-1; assay: Displacement of [3H]-prazosin at alpha-1 adrenergic receptor inat brain cortices (n=1)
Rattus norvegicus [10] = assay: Lowest oral dose that shows significant potentiation of total contraversive rotations over 3 hr caused by L-DOPA (10mg/kg, sc) in 6-hydroxydopamine-lesioned rats (n=8);administered perorally; format: functional; settings: read-out: MED

Sequence of D(2) dopamine receptor (P61169 whole entry): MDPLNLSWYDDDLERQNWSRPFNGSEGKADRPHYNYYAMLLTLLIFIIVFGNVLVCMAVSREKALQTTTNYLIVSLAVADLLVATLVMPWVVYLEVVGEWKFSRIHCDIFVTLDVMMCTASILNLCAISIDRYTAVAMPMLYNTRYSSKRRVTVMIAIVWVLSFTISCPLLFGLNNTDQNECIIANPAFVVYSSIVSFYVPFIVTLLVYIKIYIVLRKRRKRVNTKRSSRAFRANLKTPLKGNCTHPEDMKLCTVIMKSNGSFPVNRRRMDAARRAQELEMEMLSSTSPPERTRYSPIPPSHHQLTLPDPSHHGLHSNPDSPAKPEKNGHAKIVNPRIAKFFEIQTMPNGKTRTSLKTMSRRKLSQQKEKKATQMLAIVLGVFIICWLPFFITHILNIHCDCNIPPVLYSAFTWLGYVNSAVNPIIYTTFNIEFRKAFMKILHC
Sequence of Glutamate receptor ionotropic, NMDA 2C (Q00961 whole entry, one chain of several): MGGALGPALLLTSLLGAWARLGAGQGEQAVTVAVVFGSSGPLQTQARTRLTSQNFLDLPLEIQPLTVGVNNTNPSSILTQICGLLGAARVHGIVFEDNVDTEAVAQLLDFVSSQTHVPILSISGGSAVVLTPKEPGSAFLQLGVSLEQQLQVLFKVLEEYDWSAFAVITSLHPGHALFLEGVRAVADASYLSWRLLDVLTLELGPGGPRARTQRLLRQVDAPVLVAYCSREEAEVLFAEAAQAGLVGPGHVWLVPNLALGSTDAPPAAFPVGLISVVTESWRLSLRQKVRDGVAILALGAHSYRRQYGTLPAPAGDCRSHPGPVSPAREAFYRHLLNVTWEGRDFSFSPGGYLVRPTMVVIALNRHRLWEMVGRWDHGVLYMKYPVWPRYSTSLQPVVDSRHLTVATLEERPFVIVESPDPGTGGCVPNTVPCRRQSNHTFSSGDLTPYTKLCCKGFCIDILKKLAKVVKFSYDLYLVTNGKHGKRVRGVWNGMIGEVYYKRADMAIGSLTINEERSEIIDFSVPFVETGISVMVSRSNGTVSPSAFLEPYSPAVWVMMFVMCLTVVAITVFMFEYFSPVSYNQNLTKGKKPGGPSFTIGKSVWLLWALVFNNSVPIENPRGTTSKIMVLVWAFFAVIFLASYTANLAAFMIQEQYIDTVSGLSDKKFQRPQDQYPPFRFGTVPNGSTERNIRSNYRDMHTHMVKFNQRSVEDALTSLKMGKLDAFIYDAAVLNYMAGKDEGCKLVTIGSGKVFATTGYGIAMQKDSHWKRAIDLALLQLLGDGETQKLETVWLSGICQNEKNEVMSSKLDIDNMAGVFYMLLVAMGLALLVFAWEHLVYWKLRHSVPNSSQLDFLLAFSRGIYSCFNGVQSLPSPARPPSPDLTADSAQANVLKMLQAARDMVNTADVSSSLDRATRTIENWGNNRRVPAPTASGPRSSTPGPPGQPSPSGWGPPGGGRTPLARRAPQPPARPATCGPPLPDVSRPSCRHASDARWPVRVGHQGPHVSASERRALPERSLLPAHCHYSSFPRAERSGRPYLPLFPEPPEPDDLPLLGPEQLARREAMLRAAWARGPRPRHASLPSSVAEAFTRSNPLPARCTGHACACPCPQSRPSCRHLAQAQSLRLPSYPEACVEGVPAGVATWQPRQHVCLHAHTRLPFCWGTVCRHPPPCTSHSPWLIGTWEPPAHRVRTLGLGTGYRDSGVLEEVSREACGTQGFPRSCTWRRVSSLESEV
Sequence of Glutamate NMDA receptor; Grin1/Grin2a (Q00959 whole entry, looked up, other chains not shown): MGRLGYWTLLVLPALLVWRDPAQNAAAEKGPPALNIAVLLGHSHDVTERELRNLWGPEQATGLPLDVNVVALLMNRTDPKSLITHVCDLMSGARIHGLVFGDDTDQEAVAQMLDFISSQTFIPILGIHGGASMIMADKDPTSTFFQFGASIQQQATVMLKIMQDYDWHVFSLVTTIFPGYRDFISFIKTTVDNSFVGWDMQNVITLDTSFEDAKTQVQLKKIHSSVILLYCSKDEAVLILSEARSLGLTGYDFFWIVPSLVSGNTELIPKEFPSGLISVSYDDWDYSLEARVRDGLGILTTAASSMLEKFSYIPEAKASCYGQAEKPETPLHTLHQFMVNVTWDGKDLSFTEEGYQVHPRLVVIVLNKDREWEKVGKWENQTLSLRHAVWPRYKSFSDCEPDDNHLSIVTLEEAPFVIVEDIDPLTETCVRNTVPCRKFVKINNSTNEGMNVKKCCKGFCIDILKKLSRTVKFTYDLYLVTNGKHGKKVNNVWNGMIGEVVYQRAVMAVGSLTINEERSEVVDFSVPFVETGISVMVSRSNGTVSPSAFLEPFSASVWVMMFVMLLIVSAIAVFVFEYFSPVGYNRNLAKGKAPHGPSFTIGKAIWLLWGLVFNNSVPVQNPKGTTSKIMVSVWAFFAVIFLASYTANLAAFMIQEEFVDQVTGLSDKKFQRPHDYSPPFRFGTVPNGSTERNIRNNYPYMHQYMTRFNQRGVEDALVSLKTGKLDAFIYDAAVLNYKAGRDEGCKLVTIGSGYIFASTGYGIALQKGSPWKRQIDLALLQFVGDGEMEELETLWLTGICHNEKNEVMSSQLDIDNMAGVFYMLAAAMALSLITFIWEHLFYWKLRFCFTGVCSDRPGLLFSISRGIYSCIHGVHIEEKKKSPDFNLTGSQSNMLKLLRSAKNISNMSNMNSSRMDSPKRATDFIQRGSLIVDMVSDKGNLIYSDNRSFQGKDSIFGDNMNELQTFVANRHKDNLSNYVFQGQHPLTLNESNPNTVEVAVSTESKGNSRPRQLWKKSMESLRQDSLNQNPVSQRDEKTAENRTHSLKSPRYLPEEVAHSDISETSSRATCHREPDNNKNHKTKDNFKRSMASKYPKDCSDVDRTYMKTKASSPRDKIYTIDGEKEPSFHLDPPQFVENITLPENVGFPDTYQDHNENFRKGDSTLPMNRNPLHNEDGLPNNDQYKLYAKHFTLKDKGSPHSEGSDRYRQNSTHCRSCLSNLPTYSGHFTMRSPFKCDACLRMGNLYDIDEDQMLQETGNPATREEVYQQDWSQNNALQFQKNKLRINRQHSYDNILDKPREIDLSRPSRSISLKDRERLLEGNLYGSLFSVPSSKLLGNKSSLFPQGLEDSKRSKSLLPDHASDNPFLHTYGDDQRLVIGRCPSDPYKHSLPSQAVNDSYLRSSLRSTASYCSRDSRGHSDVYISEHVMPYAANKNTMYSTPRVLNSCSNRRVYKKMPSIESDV

IC50 [1] [µM]	IC50 [2] [µM]	IC50 [3] [µM]	IC50 (D(2) dopamine receptor) [µM]	SMILES	also measured
> 100	39	0.12		O=c1[nH]c2ccc(C#CCCN3CCC(Cc4ccccc4)CC3)cc2o1	
> 100	> 100	15		C(#Cc1ccc2[nH]ccc2c1)CN1CCC(Cc2ccccc2)CC1	
	57	1.8		O=C1Nc2ccc(C#CCCN3CCC(Cc4ccccc4)CC3)cc2C1=O	IC50 [4]: > 100 µM
> 100	89	62		Cn1c(=O)[nH]c2cc(C#CCN3CCC(Cc4ccccc4)CC3)ccc21	
> 100	> 100	0.22		C(#Cc1ccc2nn[nH]c2c1)CCN1CCC(Cc2ccccc2)CC1	
> 100	> 100	0.38		C(#Cc1ccc2[nH]ncc2c1)CN1CCC(Cc2ccccc2)CC1	
> 100				Cn1c(=O)[nH]c2ccc(C#CCN3CCC(Cc4ccccc4)CC3)cc21	
> 100	52	0.32		O=C1Cc2cc(C#CCCN3CCC(Cc4ccccc4)CC3)ccc2N1	
> 100	> 100	0.42		C(#Cc1ccc2[nH]nnc2c1)CN1CCC(Cc2ccccc2)CC1	
> 100	75	0.18		S=c1[nH]c2ccc(C#CCCN3CCC(Cc4ccccc4)CC3)cc2[nH]1	
> 100	25	0.016		S=c1[nH]c2ccc(C#CCN3CCC(Cc4ccccc4)CC3)cc2[nH]1	
> 100	> 100	0.11		O=C1Cc2cc(C#CCN3CCC(Cc4ccccc4)CC3)ccc2N1	
			2.6	Oc1nc2cc(C#CCN3CCC(Cc4ccccc4)CC3)ccc2[nH]1	minimal effective dose (Rattus norvegicus [5]): 10 mg/kg; IC50 [6]: 0.5 µM
				C(#Cc1ccc2cc[nH]c2c1)CCN1CCC(Cc2ccccc2)CC1	IC50 [4]: > 100 µM; IC50 [7]: > 100 µM
> 100	39	0.089		O=c1[nH]c2ccc(C#CCCN3CCC(Cc4ccccc4)CC3)cc2[nH]1	
> 100	38	0.0082	1.7	Oc1nc2cc(C#CCN3CCC(Cc4ccc(F)cc4)CC3)ccc2[nH]1	minimal effective dose (Rattus norvegicus [5]): 30 mg/kg; IC50 [6]: 1.2 µM
			41	Oc1nc2cc(C#CCN3CCC(O)(Cc4ccc(F)cc4)CC3)ccc2[nH]1	minimal effective dose (Rattus norvegicus [8]): > 30 mg/kg; IC50 [9]: 18 µM
> 100	> 100	0.0061	3.9	Oc1nc2cc(C#CCN3CCC(Cc4cccc(F)c4)CC3)ccc2[nH]1	minimal effective dose (Rattus norvegicus [5]): > 30 mg/kg; IC50 [6]: 0.7 µM
> 100	95	0.25		C(#Cc1ccc2[nH]ncc2c1)CCN1CCC(Cc2ccccc2)CC1	
		0.019	3.7	Oc1nc2cc(C#CCN3CCC(Cc4ccc(Cl)cc4)CC3)ccc2[nH]1	minimal effective dose (Rattus norvegicus [10]): 30 mg/kg; IC50 [6]: 5.8 µM
		0.049		Oc1nc2ccc(C#CCN3CCC(Cc4ccccc4)CC3)cc2o1	
> 100	> 100	0.026	9.9	COc1ccc(CC2CCN(CC#Cc3ccc4[nH]c(O)nc4c3)CC2)cc1	minimal effective dose (Rattus norvegicus [5]): > 30 mg/kg; IC50 [6]: 17 µM
> 100	> 100	0.019	86	Oc1nc2cc(C#CCN3CCC(O)(Cc4ccccc4)CC3)ccc2[nH]1	IC50 [6]: 55 µM
		0.017	14	Cc1ccc(CC2CCN(CC#Cc3ccc4[nH]c(O)nc4c3)CC2)cc1	minimal effective dose (Rattus norvegicus [5]): 30 mg/kg; IC50 [6]: 3.1 µM
				Oc1ccc(C#CCN2CCC(Cc3ccccc3)CC2)cc1	IC50 [4]: > 100 µM; IC50 [7]: > 100 µM

SMILES	IC50 [1] [µM]	IC50 [2] [µM]	IC50 [3] [µM]	IC50 (D(2) dopamine receptor) [µM]	also measured
O=C1COc2cc(C#CCCN3CCC(Cc4ccccc4)CC3)ccc2N1	> 100	> 100	1.1		
